Experimental data taken from patent US6372446B1, “Method of selectively determining a fungal biomass” (Mycometer ApS, priority 1997, dated 2002).

Key:
Assay in all cases: Screening of fungi for enzyme activity with 4-methylumbelliferone-labelled substrates
Format in all cases: cell-based
[1] = tested on: Aureobasidium pullulans (QM 3092); conditions: substrate 10 μM, 25° C., pH 5; for Enzyme activity: amount of released 4-methylumbelliferone during 5 hours of incubation: Aureobasidium pulluians (QM 3092), vegetable juice medium; for Enzyme activity: amount of released 4-methylumbelliferone: Aureobasidium pullulans (QM 3092), mineral medium
[2] = tested on: Paecilomyces farinosus (AGM 5); conditions: substrate 10 μM, 25° C., pH 5; for Enzyme activity: amount of released 4-methylumbelliferone: mineral medium; for Enzyme activity: amount of released 4-methylumbelliferone during 5 hours of incubation: vegetable juice medium
[3] = tested on: Cladosporium herbarum (AGM 8); conditions: substrate 10 μM, 25° C., pH 5; for Enzyme activity: amount of released 4-methylumbelliferone: mineral medium; for Enzyme activity: amount of released 4-methylumbelliferone during 5 hours of incubation: vegetable juice medium
[4] = tested on: Penicillium commune (IBT 13713); conditions: substrate 10 μM, 25° C., pH 5; for Enzyme activity: amount of released 4-methylumbelliferone: mineral medium; for Enzyme activity: amount of released 4-methylumbelliferone during 5 hours of incubation: vegetable juice medium
[5] = tested on: Penicillium solitum (IBT 13771); conditions: substrate 10 μM, 25° C., pH 5; for Enzyme activity: amount of released 4-methylumbelliferone: mineral medium; for Enzyme activity: amount of released 4-methylumbelliferone during 5 hours of incubation: vegetable juice medium
[6] = tested on: Aspergillus oryzae (AGM 11); conditions: substrate 10 μM, 25° C., pH 5; for Enzyme activity: amount of released 4-methylumbelliferone: mineral medium; for Enzyme activity: amount of released 4-methylumbelliferone during 5 hours of incubation: vegetable juice medium
[7] = tested on: Mucor racemosus (AAS 310); conditions: substrate 10 μM, 25° C., pH 5; for Enzyme activity: amount of released 4-methylumbelliferone: mineral medium; for Enzyme activity: amount of released 4-methylumbelliferone during 5 hours of incubation: vegetable juice medium
[8] = tested on: Ascobolus crenulatus (AAS 1); conditions: substrate 10 μM, 25° C., pH 5; for Enzyme activity: amount of released 4-methylumbelliferone: mineral medium; for Enzyme activity: amount of released 4-methylumbelliferone during 5 hours of incubation: vegetable juice medium
[9] = tested on: Trametes versicolor (AGM 24); conditions: substrate 10 μM, 25° C., pH 5; for Enzyme activity: amount of released 4-methylumbelliferone: mineral medium; for Enzyme activity: amount of released 4-methylumbelliferone during 5 hours of incubation: vegetable juice medium
[10] = tested on: Rhizomucor pusillus (AAS 300); conditions: substrate 10 μM, 25° C., pH 5; for Enzyme activity: amount of released 4-methylumbelliferone: mineral medium; for Enzyme activity: amount of released 4-methylumbelliferone during 5 hours of incubation: vegetable juice medium
[11] = tested on: Schizophyllum commune (AGM 25); conditions: substrate 10 μM, 25° C., pH 5; for Enzyme activity: amount of released 4-methylumbelliferone: mineral medium; for Enzyme activity: amount of released 4-methylumbelliferone during 5 hours of incubation: vegetable juice medium
[12] = tested on: Sodaria fimicola (AAS 17); conditions: substrate 10 μM, 25° C., pH 5; for Enzyme activity: amount of released 4-methylumbelliferone: mineral medium; for Enzyme activity: amount of released 4-methylumbelliferone during 5 hours of incubation: vegetable juice medium
[13] = tested on: Eurotium sp. (AAS 36); conditions: substrate 10 μM, 25° C., pH 5; for Enzyme activity: amount of released 4-methylumbelliferone: mineral medium; for Enzyme activity: amount of released 4-methylumbelliferone during 5 hours of incubation: vegetable juice medium
[14] = tested on: Aspergillus versicolor (IBT 13738); conditions: substrate 10 μM, 25° C., pH 5; for Enzyme activity: amount of released 4-methylumbelliferone: mineral medium; for Enzyme activity: amount of released 4-methylumbelliferone during 5 hours of incubation: vegetable juice medium

SMILES | Enzyme activity: amount of released 4-methylumbelliferone during 5 hours of incubation [1] | Enzyme activity: amount of released 4-methylumbelliferone [1] | Enzyme activity: amount of released 4-methylumbelliferone [2] | Enzyme activity: amount of released 4-methylumbelliferone during 5 hours of incubation [2] | Enzyme activity: amount of released 4-methylumbelliferone [3] | Enzyme activity: amount of released 4-methylumbelliferone during 5 hours of incubation [3] | Enzyme activity: amount of released 4-methylumbelliferone [4] | Enzyme activity: amount of released 4-methylumbelliferone during 5 hours of incubation [4] | Enzyme activity: amount of released 4-methylumbelliferone [5] | Enzyme activity: amount of released 4-methylumbelliferone during 5 hours of incubation [5] | Enzyme activity: amount of released 4-methylumbelliferone [6] | Enzyme activity: amount of released 4-methylumbelliferone during 5 hours of incubation [6] | Enzyme activity: amount of released 4-methylumbelliferone [7] | Enzyme activity: amount of released 4-methylumbelliferone during 5 hours of incubation [7] | Enzyme activity: amount of released 4-methylumbelliferone [8] | Enzyme activity: amount of released 4-methylumbelliferone during 5 hours of incubation [8] | Enzyme activity: amount of released 4-methylumbelliferone [9] | Enzyme activity: amount of released 4-methylumbelliferone during 5 hours of incubation [9] | Enzyme activity: amount of released 4-methylumbelliferone [10] | Enzyme activity: amount of released 4-methylumbelliferone during 5 hours of incubation [10] | further results
Cc1cc(=O)oc2cc(OC3OC(CO)C(O)C(O)C3O)ccc12 [substrate 5, 4-methylumbelliferyl α-D-mannopyranoside] | ** (1 ≦ ** 2) | 0 µmol | 0 µmol | 0 µmol | 0 µmol | 0 µmol | 0 µmol | * (0.4 ≦ * < 1) | 0 µmol | 0 µmol | 0 µmol | *** (2 ≦ ***) | 0 µmol | * (0.4 ≦ * < 1) | 0 µmol | 0 µmol | 0 µmol | * (0.4 ≦ * < 1) | 0 µmol | *** (2 ≦ ***) | Enzyme activity: amount of released 4-methylumbelliferone [11]: 0 µmol; Enzyme activity: amount of released 4-methylumbelliferone during 5 hours of incubation [11]: ** (1 ≦ ** 2); Enzyme activity: amount of released 4-methylumbelliferone [12]: 0 µmol; Enzyme activity: amount of released 4-methylumbelliferone during 5 hours of incubation [12]: *** (2 ≦ ***); Enzyme activity: amount of released 4-methylumbelliferone [13]: 0 µmol; Enzyme activity: amount of released 4-methylumbelliferone during 5 hours of incubation [13]: * (0.4 ≦ * < 1); Enzyme activity: amount of released 4-methylumbelliferone [14]: 0 µmol; Enzyme activity: amount of released 4-methylumbelliferone during 5 hours of incubation [14]: 0 µmol
Cc1cc(=O)oc2cc(O[C@H]3O[C@H](C)[C@H](O)[C@H](O)[C@H]3O)ccc12 [substrate 10, 4-methylumbelliferyl α-D-fucoside] | 0 µmol | * (0.4 ≦ * < 1) | 0 µmol | 0 µmol | 0 µmol | 0 µmol | 0 µmol | 0 µmol | 0 µmol | 0 µmol | 0 µmol | 0 µmol | 0 µmol | ** (1 ≦ ** 2) | 0 µmol | 0 µmol | 0 µmol | 0 µmol | 0 µmol | *** (2 ≦ ***) | Enzyme activity: amount of released 4-methylumbelliferone [11]: 0 µmol; Enzyme activity: amount of released 4-methylumbelliferone during 5 hours of incubation [11]: 0 µmol; Enzyme activity: amount of released 4-methylumbelliferone [12]: 0 µmol; Enzyme activity: amount of released 4-methylumbelliferone during 5 hours of incubation [12]: 0 µmol; Enzyme activity: amount of released 4-methylumbelliferone [13]: 0 µmol; Enzyme activity: amount of released 4-methylumbelliferone during 5 hours of incubation [13]: 0 µmol; Enzyme activity: amount of released 4-methylumbelliferone [14]: 0 µmol; Enzyme activity: amount of released 4-methylumbelliferone during 5 hours of incubation [14]: 0 µmol

The next lines start with results.

Enzyme activity: amount of released 4-methylumbelliferone during 5 hours of incubation [1] | Enzyme activity: amount of released 4-methylumbelliferone [1] | Enzyme activity: amount of released 4-methylumbelliferone [2] | Enzyme activity: amount of released 4-methylumbelliferone during 5 hours of incubation [2] | Enzyme activity: amount of released 4-methylumbelliferone [3] | Enzyme activity: amount of released 4-methylumbelliferone during 5 hours of incubation [3] | Enzyme activity: amount of released 4-methylumbelliferone [4] | Enzyme activity: amount of released 4-methylumbelliferone during 5 hours of incubation [4] | Enzyme activity: amount of released 4-methylumbelliferone [5] | Enzyme activity: amount of released 4-methylumbelliferone during 5 hours of incubation [5] | Enzyme activity: amount of released 4-methylumbelliferone [6] | Enzyme activity: amount of released 4-methylumbelliferone during 5 hours of incubation [6] | Enzyme activity: amount of released 4-methylumbelliferone [7] | Enzyme activity: amount of released 4-methylumbelliferone during 5 hours of incubation [7] | Enzyme activity: amount of released 4-methylumbelliferone [8] | Enzyme activity: amount of released 4-methylumbelliferone during 5 hours of incubation [8] | Enzyme activity: amount of released 4-methylumbelliferone [9] | Enzyme activity: amount of released 4-methylumbelliferone during 5 hours of incubation [9] | Enzyme activity: amount of released 4-methylumbelliferone [10] | Enzyme activity: amount of released 4-methylumbelliferone during 5 hours of incubation [10] | SMILES | further results
0 µmol | 0 µmol | 0 µmol | 0 µmol | 0 µmol | 0 µmol | 0 µmol | 0 µmol | 0 µmol | 0 µmol | 0 µmol | 0 µmol | 0 µmol | 0 µmol | 0 µmol | 0 µmol | 0 µmol | 0 µmol | 0 µmol | 0 µmol | CC(=O)N[C@H]1[C@@H](Oc2ccc3c(C)cc(=O)oc3c2)O[C@H](CO)[C@@H](O)[C@@H]1O [substrate 2, 4-methylumbelliferyl N-acetyl-α-D-glucosaminide] | Enzyme activity: amount of released 4-methylumbelliferone [11]: 0 µmol; Enzyme activity: amount of released 4-methylumbelliferone during 5 hours of incubation [11]: 0 µmol; Enzyme activity: amount of released 4-methylumbelliferone [12]: 0 µmol; Enzyme activity: amount of released 4-methylumbelliferone during 5 hours of incubation [12]: 0 µmol; Enzyme activity: amount of released 4-methylumbelliferone [13]: 0 µmol; Enzyme activity: amount of released 4-methylumbelliferone during 5 hours of incubation [13]: 0 µmol; Enzyme activity: amount of released 4-methylumbelliferone [14]: 0 µmol; Enzyme activity: amount of released 4-methylumbelliferone during 5 hours of incubation [14]: 0 µmol
*** (2 ≦ ***) | *** (2 ≦ ***) | 0 µmol | 0 µmol | 0 µmol | 0 µmol | 0 µmol | 0 µmol | 0 µmol | 0 µmol | 0 µmol | 0 µmol | 0 µmol | 0 µmol | 0 µmol | 0 µmol | 0 µmol | 0 µmol | 0 µmol | * (0.4 ≦ * < 1) | Cc1cc(=O)oc2cc(O[C@H]3O[C@H](CO)[C@@H](O)[C@H](O)[C@H]3O)ccc12 [substrate 7, 4-methylumbelliferyl α-D-glucoside] | Enzyme activity: amount of released 4-methylumbelliferone [11]: 0 µmol; Enzyme activity: amount of released 4-methylumbelliferone during 5 hours of incubation [11]: 0 µmol; Enzyme activity: amount of released 4-methylumbelliferone [12]: 0 µmol; Enzyme activity: amount of released 4-methylumbelliferone during 5 hours of incubation [12]: ** (1 ≦ ** 2); Enzyme activity: amount of released 4-methylumbelliferone [13]: 0 µmol; Enzyme activity: amount of released 4-methylumbelliferone during 5 hours of incubation [13]: 0 µmol; Enzyme activity: amount of released 4-methylumbelliferone [14]: 0 µmol; Enzyme activity: amount of released 4-methylumbelliferone during 5 hours of incubation [14]: 0 µmol
*** (2 ≦ ***) | 0 µmol | 0 µmol | 0 µmol | 0 µmol | 0 µmol | 0 µmol | * (0.4 ≦ * < 1) | 0 µmol | ** (1 ≦ ** 2) | 0 µmol | *** (2 ≦ ***) | 0 µmol | 0 µmol | 0 µmol | 0 µmol | 0 µmol | 0 µmol | 0 µmol | *** (2 ≦ ***) | Cc1cc(=O)oc2cc(O[C@@H]3OC[C@@H](O)[C@H](O)[C@H]3O)ccc12 [substrate 9, 4-methylumbelliferyl β-D-xyloside] | Enzyme activity: amount of released 4-methylumbelliferone [11]: 0 µmol; Enzyme activity: amount of released 4-methylumbelliferone during 5 hours of incubation [11]: *** (2 ≦ ***); Enzyme activity: amount of released 4-methylumbelliferone [12]: 0 µmol; Enzyme activity: amount of released 4-methylumbelliferone during 5 hours of incubation [12]: 0 µmol; Enzyme activity: amount of released 4-methylumbelliferone [13]: 0 µmol; Enzyme activity: amount of released 4-methylumbelliferone during 5 hours of incubation [13]: 0 µmol; Enzyme activity: amount of released 4-methylumbelliferone [14]: 0 µmol; Enzyme activity: amount of released 4-methylumbelliferone during 5 hours of incubation [14]: *** (2 ≦ ***)
